Assays:
Type in all cases: functional
NCI-H23 [1] = test: Growth inhibition of human NCI-H23 cells assessed as cell growth at 5X10'-6 M after 48 hrs by sulforhodamine B assay; details: NCI-H23, 48 h, read-out: Activity
SNB-75 [2] = test: Growth inhibition of human SNB75 cells assessed as cell growth at 5X10'-6 M after 48 hrs by sulforhodamine B assay; details: SNB-75, 48 h, read-out: Activity
IGROV-1 = test: Growth inhibition of human IGROV1 cells assessed as cell growth at 3X10'-5 M after 48 hrs by sulforhodamine B assay; details: IGROV-1, 48 h, read-out: Activity
UACC-257 = test: Growth inhibition of human UACC257 cells assessed as cell growth at 3X10'-9 M after 48 hrs by sulforhodamine B assay; details: UACC-257, 48 h, read-out: Activity
HL-60(TB) = test: Growth inhibition of human HL-60(TB) cells assessed as cell growth at 3X10'-9 M after 48 hrs by sulforhodamine B assay; details: HL-60, 48 h, read-out: Activity
PC-3 [3] = test: Growth inhibition of human PC3 cells assessed as cell growth at 3X10'-8 M after 48 hrs by sulforhodamine B assay; details: PC-3, 48 h, read-out: Activity
[4] = Growth inhibition of human Hs 578T cells assessed as cell growth at 3X10'-8 M after 48 hrs by sulforhodamine B assay; details: read-out: Activity
ACHN = test: Growth inhibition of human ACHN cells assessed as cell growth at 3X10'-7 M after 48 hrs by sulforhodamine B assay; details: read-out: Activity
A498 [5] = test: Growth inhibition of human A498 cells assessed as cell growth at 3X10'-7 M after 48 hrs by sulforhodamine B assay; details: A498, 48 h, read-out: Activity
SNB-19 = test: Growth inhibition of human SNB19 cells assessed as cell growth at 3X10'-5 M after 48 hrs by sulforhodamine B assay; details: SNB-19, 48 h, read-out: Activity
NCI-H460 = test: Growth inhibition of human NCI-H460 cells assessed as cell growth at 3X10'-8 M after 48 hrs by sulforhodamine B assay; details: NCI-H460, 48 h, read-out: Activity
PC-3 [6] = test: Growth inhibition of human PC3 cells assessed as cell growth at 3X10'-7 M after 48 hrs by sulforhodamine B assay; details: PC-3, 48 h, read-out: Activity
NCI-H322M = test: Growth inhibition of human NCI-H322M cells assessed as cell growth at 3X10'-7 M after 48 hrs by sulforhodamine B assay; details: read-out: Activity
M14 = test: Growth inhibition of human M14 cells assessed as cell growth at 3X10'-6 M after 48 hrs by sulforhodamine B assay; details: M14, 48 h, read-out: Activity
UACC-62 [7] = test: Growth inhibition of human UACC62 cells assessed as cell growth at 3X10'-8 M after 48 hrs by sulforhodamine B assay; details: UACC-62, 48 h, read-out: Activity
LOX IMVI = test: Growth inhibition of human LOXIMVI cells assessed as cell growth at 3X10'-9 M after 48 hrs by sulforhodamine B assay; details: read-out: Activity
SK-MEL-28 [8] = test: Growth inhibition of human SK-MEL-28 cells assessed as cell growth at 3X10'-7 M after 48 hrs by sulforhodamine B assay; details: SK-MEL-28, 48 h, read-out: Activity
U-251 = test: Growth inhibition of human U251 cells assessed as cell growth at 3X10'-6 M after 48 hrs by sulforhodamine B assay; details: U-251, 48 h, read-out: Activity
OVCAR-4 = test: Growth inhibition of human OVCAR4 cells assessed as cell growth at 3X10'-8 M after 48 hrs by sulforhodamine B assay; details: OVCAR-4, 48 h, read-out: Activity
A498 [9] = test: Growth inhibition of human A498 cells assessed as cell growth at 3X10'-5 M after 48 hrs by sulforhodamine B assay; details: A498, 48 h, read-out: Activity
HOP-62 = test: Growth inhibition of human HOP62 cells assessed as cell growth at 3X10'-5 M after 48 hrs by sulforhodamine B assay; details: HOP-62, 48 h, read-out: Activity
SK-OV-3 [10] = test: Growth inhibition of human SKOV3 cells assessed as cell growth at 3X10'-9 M after 48 hrs by sulforhodamine B assay; details: SK-OV-3, 48 h, read-out: Activity
TK-10 = test: Growth inhibition of human TK10 cells assessed as cell growth at 3X10'-5 M after 48 hrs by sulforhodamine B assay; details: TK-10, 48 h, read-out: Activity
MDA-MB-231 = test: Growth inhibition of human MDA-MB-231 cells assessed as cell growth at 3X10'-6 M after 48 hrs by sulforhodamine B assay; details: MDA-MB-231, 48 h, read-out: Activity
SK-MEL-28 [11] = test: Growth inhibition of human SK-MEL-28 cells assessed as cell growth at 3X10'-5 M after 48 hrs by sulforhodamine B assay; details: SK-MEL-28, 48 h, read-out: Activity
[12] = Growth inhibition of human NCI-ADR-RES cells assessed as cell growth at 3X10'-6 M after 48 hrs by sulforhodamine B assay; details: read-out: Activity
CCRF-CEM [13] = test: Growth inhibition of human CCRF-CEM cells assessed as cell growth at 3X10'-6 M after 48 hrs by sulforhodamine B assay; details: read-out: Activity
K562 = test: Growth inhibition of human K562 cells assessed as cell growth at 3X10'-8 M after 48 hrs by sulforhodamine B assay; details: K562, 48 h, read-out: Activity
SK-OV-3 [14] = test: Growth inhibition of human SKOV3 cells assessed as cell growth at 3X10'-6 M after 48 hrs by sulforhodamine B assay; details: SK-OV-3, 48 h, read-out: Activity
SW-620 = test: Growth inhibition of human SW620 cells assessed as cell growth at 3X10'-9 M after 48 hrs by sulforhodamine B assay; details: SW-620, 48 h, read-out: Activity
CCRF-CEM [15] = test: Growth inhibition of human CCRF-CEM cells assessed as cell growth at 3X10'-5 M after 48 hrs by sulforhodamine B assay; details: read-out: Activity
RXF 393 = test: Growth inhibition of human RXF393 cells assessed as cell growth at 3X10'-9 M after 48 hrs by sulforhodamine B assay; details: RXF 393, 48 h, read-out: Activity
CAKI-1 = test: Growth inhibition of human CAKI-1 cells assessed as cell growth at 3X10'-9 M after 48 hrs by sulforhodamine B assay; details: CAKI-1, 48 h, read-out: Activity
SF-295 = test: Growth inhibition of human SF295 cells assessed as cell growth at 3X10'-7 M after 48 hrs by sulforhodamine B assay; details: SF-295, 48 h, read-out: Activity
SNB-75 [16] = test: Growth inhibition of human SNB75 cells assessed as cell growth at 3X10'-9 M after 48 hrs by sulforhodamine B assay; details: SNB-75, 48 h, read-out: Activity
NCI-H23 [17] = test: Growth inhibition of human NCI-H23 cells assessed as cell growth at 3X10'-9 M after 48 hrs by sulforhodamine B assay; details: NCI-H23, 48 h, read-out: Activity
UACC-62 [18] = test: Growth inhibition of human UACC62 cells assessed as cell growth at 3X10'-7 M after 48 hrs by sulforhodamine B assay; details: UACC-62, 48 h, read-out: Activity

COc1cc(-c2nn(-c3cccc(NC(=O)Nc4cccc(C(F)(F)F)c4)c3)cc2-c2ccncc2)ccc1Cl
growth at 5 µM (NCI-H23 [1]): -18% | growth at 5 µM (SNB-75 [2]): -4%

COc1cc(-c2nn(-c3cccc(NC(=O)Nc4cc(C(F)(F)F)cc(C(F)(F)F)c4)c3)cc2-c2ccncc2)ccc1Cl
growth at 5 µM (NCI-H23 [1]): -18% | growth at 5 µM (SNB-75 [2]): -50%

COc1cc(-c2nn(-c3cccc(NC(=O)c4cccc(C(F)(F)F)c4)c3)cc2-c2ccncc2)ccc1Cl
growth at 5 µM (NCI-H23 [1]): 13% | growth at 5 µM (SNB-75 [2]): -2%

COc1cc(-c2nn(-c3cccc(NC(=O)c4ccc(Cl)c(C(F)(F)F)c4)c3)cc2-c2ccncc2)ccc1Cl
growth at 30 µM (IGROV-1): 8% | growth at 0.003 µM (UACC-257): 93% | growth at 0.003 µM (HL-60(TB)): 93% | growth at 0.03 µM (PC-3 [3]): 92% | growth at 0.03 µM [4]: 91% | growth at 0.3 µM (ACHN): 90% | growth at 0.3 µM (A498 [5]): 82% | growth at 30 µM (SNB-19): 29% | growth at 0.03 µM (NCI-H460): 104% | growth at 0.3 µM (PC-3 [6]): 78% | growth at 0.3 µM (NCI-H322M): 92% | growth at 3 µM (M14): 47% | growth at 0.03 µM (UACC-62 [7]): 99% | growth at 0.003 µM (LOX IMVI): 92% | growth at 0.3 µM (SK-MEL-28 [8]): 95% | growth at 3 µM (U-251): 49% | growth at 0.03 µM (OVCAR-4): 103% | growth at 30 µM (A498 [9]): -9% | growth at 30 µM (HOP-62): 35% | growth at 0.003 µM (SK-OV-3 [10]): 100% | growth at 30 µM (TK-10): 44% | growth at 3 µM (MDA-MB-231): 27% | growth at 30 µM (SK-MEL-28 [11]): 29% | growth at 3 µM [12]: 22% | growth at 3 µM (CCRF-CEM [13]): 32% | growth at 0.03 µM (K562): 100% | growth at 3 µM (SK-OV-3 [14]): 71% | growth at 0.003 µM (SW-620): 98% | growth at 30 µM (CCRF-CEM [15]): 4% | growth at 0.003 µM (RXF 393): 99% | growth at 0.003 µM (CAKI-1): 93% | growth at 0.3 µM (SF-295): 90% | growth at 0.003 µM (SNB-75 [16]): 86% | growth at 0.003 µM (NCI-H23 [17]): 93% | growth at 0.3 µM (UACC-62 [18]): 92%
